{"source": "patent US20190352341A1", "about": "“MODIFIED PEPTIDES AND THEIR USE FOR TREATING SYSTEMIC LUPUS ERYTHEMATOSUS” (IMMUPHARMA FRANCE SA, priority 2018, published 2019)", "target": "T1, HSC70 protein (Bos taurus, UniProt P19120)", "T1 construct": "purchased Stressgen", "T1 sequence (P19120 whole entry)": "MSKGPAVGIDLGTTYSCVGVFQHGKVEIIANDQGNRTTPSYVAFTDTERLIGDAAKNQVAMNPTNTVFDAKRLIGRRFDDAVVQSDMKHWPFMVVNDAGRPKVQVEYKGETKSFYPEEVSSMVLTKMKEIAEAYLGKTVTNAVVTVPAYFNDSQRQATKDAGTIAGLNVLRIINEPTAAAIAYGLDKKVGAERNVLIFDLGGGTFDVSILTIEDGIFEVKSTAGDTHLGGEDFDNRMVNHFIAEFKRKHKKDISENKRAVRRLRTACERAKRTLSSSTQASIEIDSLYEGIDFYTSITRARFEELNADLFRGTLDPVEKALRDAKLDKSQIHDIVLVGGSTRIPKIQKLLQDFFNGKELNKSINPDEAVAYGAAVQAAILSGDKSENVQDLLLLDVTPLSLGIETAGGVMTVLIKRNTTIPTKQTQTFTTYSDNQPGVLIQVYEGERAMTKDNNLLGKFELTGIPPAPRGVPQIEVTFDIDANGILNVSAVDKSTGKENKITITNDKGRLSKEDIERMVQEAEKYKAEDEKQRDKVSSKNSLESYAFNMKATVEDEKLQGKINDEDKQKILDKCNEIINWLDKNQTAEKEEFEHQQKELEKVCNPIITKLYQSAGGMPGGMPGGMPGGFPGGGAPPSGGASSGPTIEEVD", "assay": "Affinity of the peptides for HSC70 protein (BIAcore)", "type": "binding, bovine", "procedure": "BIAcore 3000 system (Biacore AB) was used to evaluate the binding of P140 peptides to HSC70 protein (Page et al., 2009, and 2011). Sensor chip CMS, surfactant P20, amine coupling kit containing N-hydroxysuccinimide (NHS) and N-ethyl-N′-dimethylaminopropyl carbodiimide (EDC), 2-(2-pyridinyldithio)ethaneamine (PDEA) and ethanolamine were from Biacore AB. Biosensor assays were performed with HBS-EP buffer as running buffer (10 mM HEPES, 150 mM NaCl, 3 mM EDTA, 0.005% surfactant P20, pH 7.4). The compounds were diluted in the running buffer. The sensor chip surface was regenerated after each experiment by injecting 10 μL of 10 mM HCl. Recombinant bovine HSC70 (Stressgen) was immobilized on flow cells of a CM5 sensor chip through its thiol groups using 35 μL PDEA in 50 mM borate buffer, pH 8.3 on the NHS/EDC-activated matrix. Then, 35 μL of HSC70 (100 μg/mL in formate buffer, pH 4.3) were injected until a response of 13,000 response units (RU) corresponding to 13 ng/mm^2 of HSC70 was immobilized. Twenty μL of a 50 mM cysteine/1 M NaCl solution was used to saturate unoccupied sites on the chip. The direct binding measurement of P140 peptides to HSC70 was carried out at 25° C. with a constant flow rate of 20 μL/min. P140 peptide and analogues were injected in the flux at different concentrations for 3 min, followed by a dissociation phase of 3 min. The kinetic parameters were calculated using the BIAeval 3.1 software on a personal computer. Analysis was performed using the simple 1:1 Langmuir binding model. The specific binding profiles were obtained after subtracting the response signal from the control empty channel and from blank-buffer injection. The fitting to each model was judged by the χ^2 value and randomness of residue distribution compared to the theoretical model.", "key": {"[1]": {"settings": "BIAcore, 25° C., 1:1 Langmuir model, global fit"}}, "note": "Numbered stars: 1 amine (or outer) side, 2 acyl side, 3 side chain; on linkers, the order of the positions; unused ones are H or OH. Square brackets hold non-standard residues; d marks the D form. Peptide text beside a SMILES is read from it. ξ: configuration not given here. X1 = CSCC[C@H](NC(=N)[C@H](Cc1c[nH]cn1)N[*:1])C(=O)[*:2]; pS = N[C@@H](COP(=O)(O)O)C(=O)O; Ile(3ξ) = CCC(C)[C@H](N)C(=O)O"}
{"smiles": "CCC(C)[C@H](NC(=O)[C@H](Cc1ccccc1)NC(=O)[C@H](C)NC(=O)[C@H](Cc1ccc(O)cc1)NC(=O)CNC(=O)[C@H](CCCNC(=N)N)NC(=O)[C@@H]1CCCN1C(=O)[C@H](CCCCN)NC(=O)CNC(=O)[C@H](COP(=O)(O)O)NC(=O)[C@H](CCCNC(=N)N)NC(=O)[C@H](CCCCN)NC(=O)[C@H](CO)NC(=O)[C@H](Cc1ccc(O)cc1)NC(=O)[C@@H](NC(=O)[C@H](CCSC)NC(=N)[C@H](Cc1c[nH]cn1)NC(=O)[C@@H](NC(=O)[C@@H](N)CCCNC(=N)N)C(C)CC)C(C)C)C(=O)N[C@@H](CCC(=O)O)C(=O)N[C@@H](Cc1ccc(O)cc1)C(=O)O", "note": "(stereo partly shown) [Compound P140] (H-R[Ile(3ξ)][X1]VYSKR[pS]GKPRGYAF[Ile(3ξ)]EY-OH)", "values": [{"measurement": "Rmax", "setting": "BIAcore, 25° C., 1:1 Langmuir model", "value": 83.3, "unit": "RU"}, {"measurement": "KA", "setting": "[1]", "value": 144000, "unit": "M⁻¹"}, {"measurement": "kd", "setting": "[1]", "value": 0.00312, "unit": "s⁻¹"}, {"measurement": "kon", "setting": "BIAcore, 25° C., 1:1 Langmuir model, global fit, read-out: ka", "value": 450, "unit": "M⁻¹ s⁻¹"}, {"measurement": "RI", "setting": "peptide 1.56 μM", "value": 12.1, "unit": "RU"}, {"measurement": "Req", "setting": "peptide 1.56 μM", "value": 15.3, "unit": "RU"}, {"measurement": "kobs", "setting": "peptide 1.56 μM", "value": 0.00382, "unit": "s⁻¹"}, {"measurement": "RI", "setting": "peptide 3.12 μM", "value": 20.9, "unit": "RU"}, {"measurement": "Req", "setting": "peptide 3.12 μM", "value": 25.8, "unit": "RU"}, {"measurement": "kobs", "setting": "peptide 3.12 μM", "value": 0.00452, "unit": "s⁻¹"}, {"measurement": "RI", "setting": "peptide 6.25 μM", "value": 33.8, "unit": "RU"}, {"measurement": "Req", "setting": "peptide 6.25 μM", "value": 39.5, "unit": "RU"}, {"measurement": "kobs", "setting": "peptide 6.25 μM", "value": 0.00593, "unit": "s⁻¹"}, {"measurement": "RI", "setting": "peptide 12.5 μM", "value": 62.5, "unit": "RU"}, {"measurement": "Req", "setting": "peptide 12.5 μM", "value": 53.6, "unit": "RU"}, {"measurement": "kobs", "setting": "peptide 12.5 μM", "value": 0.00874, "unit": "s⁻¹"}, {"measurement": "RI", "setting": "peptide 25 μM", "value": 118, "unit": "RU"}, {"measurement": "Req", "setting": "peptide 25 μM", "value": 65.2, "unit": "RU"}, {"measurement": "kobs", "setting": "peptide 25 μM", "value": 0.0144, "unit": "s⁻¹"}]}
